Numbered stars: 1 amine (or outer) side, 2 acyl side, 3 side chain; on linkers, the order of the positions; unused ones are H or OH. Square brackets hold non-standard residues; d marks the D form. Peptide text beside a SMILES is read from it. * marks the point of attachment. Dolaproine = CO[C@@H]([C@@H]1CCCN1)[C@@H](C)C(=O)O; X1 = N[C@@H](CSC1CC(=O)N(CCCCCC(=O)*)C1=O)C(=O)O; Dil = CC[C@H](C)[C@H](NC)[C@@H](CC(=O)O)OC; PABC = O=C(OCc1ccc(N[*:1])cc1)[*:2]; X2 = C[C@@H](N*)[C@@H](O)c1ccccc1; NMeV = CN[C@H](C(=O)O)C(C)C
How the values were obtained:
[1] = test system: tubulin; experiment: Tubulin polymerization inhibition assay (fluorescence-based kit); type: biochemical; conditions: tested at 0.1-30 μM; mean of triplicate
Excerpt: In this study, we used a molecular-level tubulin inhibition assay to rapidly assess the efficacy of ionized conjugates to circumvent the effects of the differences in membrane permeability. […] All of the tested Cys-linker-MMAE conjugates produced concentration-dependent inhibition of tubulin polymerization, providing a basis for developing ADCs with Cys-linker-MMAE as potent payloads.
We used the Tubulin Polymerization Assay Kit (Cat. # BK011P, Cytoskeleton, Inc., Denver, CO, USA) according to the manufacturer’s instructions for this fluorescence-based test. Before this test, the linker-MMAE conjugates were added to an L-cysteine solution (0.3 mmol/L in H2O, 900 μL), and the mixture was incubated for 10 min at room temperature for the conversion to Cys-linker-MMAE conjugates according to previously reported methods.

[2] = test system: MCF-7 cells; experiment: In vitro cytotoxicity (CellTiter-Glo, 7 days), MCF-7; type: cell-based, human; conditions: MCF-7, HER2−; for IC50: Homo sapiens, MCF7, 168 h
Description: (§1) Human HER2-positive cell lines (BT-474, HCC1954, and NCI-N87) and HER2-negative cell lines (MCF-7 and MDA-MB-468) were purchased from the ATCC. Tumor cells were cultured in Roswell Park Memorial Institute (RPMI)-1640 medium (Cellgro, Manassas, VA, USA) supplemented with 10% fetal bovine serum (Invitrogen, Carlsbad, CA, USA) and GlutaMAX (Invitrogen, Carlsbad, CA, USA). Cells (3.3 × 10^4 cells/well) were added to each well of 384-well plates and incubated at 37 °C overnight, after which 10 μL of compound aliquots were added to the assay plate. […] Then, the plates were removed from the incubator and equilibrated at room temperature for 10 min. The Cell Titer Glo® (CTG, Promega, Madison, WI, USA) reagents were incubated at 37 °C before the experiment. The buffer was equilibrated to room temperature and used to dissolve the substrate. Then, 40 μL of CTG reagent was added to each well for detection (at 1:1 ratio to the culture medium).

[3] = test system: HCC1954 cells; experiment: In vitro cytotoxicity (CellTiter-Glo, 7 days), HCC1954; type: cell-based, human; conditions: HCC1954, HER2+++; for IC50: Homo sapiens, 168 h
Description: as §1

[4] = test system: HER2-positive cell lines (BT-474, HCC1954, and NCI-N87) and HER2-negative cell lines (MCF-7, and MDA-MB-468); experiment: In vitro cytotoxicity, summary over the cell line panel; type: cell-based, human; conditions: from Table 2 IC50 values
Description: as §1

[5] = test system: BT-474 cells; experiment: In vitro cytotoxicity (CellTiter-Glo, 7 days), BT-474; type: cell-based, human; conditions: BT-474, HER2+++; for IC50: Homo sapiens, 168 h
Description: as §1

[6] = test system: MDA-MB-468 cells; experiment: In vitro cytotoxicity (CellTiter-Glo, 7 days), MDA-MB-468; type: cell-based, human; conditions: MDA-MB-468, HER2−; for IC50: Homo sapiens, 168 h
Description: as §1

[7] = test system: NCI-N87 cells; experiment: In vitro cytotoxicity (CellTiter-Glo, 7 days), NCI-N87; type: cell-based, human; conditions: NCI-N87, HER2+++; for IC50: Homo sapiens, 168 h
Description: as §1

[8] = test system: cells (cellular level); conditions: cited from earlier work

| Compound | EC50 [1] | IC50 [2] | Max. Inhibition [2] | Max. Inhibition [3] | IC50 [3] | Decrease in activity compared to MMAE in each cell line [4] | Max. Inhibition [5] | IC50 [5] | IC50 [6] | Max. Inhibition [6] | IC50 [7] | Max. Inhibition [7] | IC50 [8] |
| --- | --- | --- | --- | --- | --- | --- | --- | --- | --- | --- | --- | --- | --- |
| CC[C@H](C)[C@@H]([C@@H](CC(=O)N1CCC[C@H]1[C@H](OC)[C@@H](C)C(=O)N[C@H](C)[C@@H](O)c1ccccc1)OC)N(C)C(=O)[C@@H](NC(=O)[C@H](C(C)C)N(C)C(=O)OCc1ccc(NC(=O)CCCCCN2C(=O)CC(SC[C@H](N)C(=O)O)C2=O)cc1)C(C)C (some centres unmarked) [Cys-15] ({X1-PABC}-[NMeV]V[Dil][Dolaproine]-X2) | 2320 nM | 51.2 nM | 91.13% | 98.86% | 2.31 nM | 22–177 fold | 82.62% | 6.88 nM | 11.1 nM | 85.75% | 8.67 nM | 94.86% |  |
| CCC(C)C(C(CC(=O)N1CCCC1C(OC)C(C)C(=O)NC(C)C(O)c1ccccc1)OC)N(C)C(=O)C(NC(=O)C(NC)C(C)C)C(C)C (centres unmarked) [MMAE, Monomethyl auristatin E] | 1430 nM | 0.29 nM | 93.14% | 97.54% | 0.07 nM |  | 79.09% | 0.32 nM | 0.17 nM |  | 0.07 nM | 89.37% | 0.01 to 1 nM |
